Measured values from article PMC7156724, “Potent BRD4 inhibitor suppresses cancer cell-macrophage interaction” (Nature Communications, 2020).
Values joined by “and” are separate entries in the source; they are usually repeats but may differ in a detail not shown here. Identical values can stand only once.

Legend:
[1] = test system: HaCAT cells (immortalized human keratinocytes); test: MTS assay of non-cancerous cells; format: cell-based; set-up: Cell viability (Sup Fig.4a) / Cell viability (Sup Fig.4b) / Cell viability (Sup Fig.4b, 72h): unit not given here; conditions: for Cell viability (Sup Fig.4b): 48h
Experimental: Supplementary Figure 4. […] (a-c) MTS
assays of HaCAT cells (immortalized human keratinocytes) treated with the indicated concentration of
NHWD-870 for 24h (a), 48h (b) or 72h (c). Data are presented as mean ± SEM of 5 independent experiments.
p values were calculated from two-tailed, unpaired t tests. Source data are provided as a Source Data file.
37℃, 5% CO2. […]

[2] = test system: TAMs (CD11b+F4/80+ cells) in A375 melanoma model; test: FACS analysis of TAMs in A375 tumors; format: in vivo, mouse; conditions: day 21, FACS
Experimental: Flow cytometry analyses were performed using antibodies listed in Supplementary Table 8. For cell surface markers, mouse TAM suspensions were stained with mouse APC-CD45, FITC-CD11b, PE-F4/80 or APC-F4/80, CD68, and PE-CD206 antibodies for 15 min on ice. For Ki67 staining, cells were fixed in 4% paraformaldehyde and stained with FITC-Ki67. Isotype matching antibody served as the negative control. Flow cytometry was performed on a FACSCalibur (BD Biosciences). Data were analyzed with BD CellQuest Pro software version 5.1.
(a,b) Tumors from A375 tumor bearing mice in Figure 3e were harvested at day 21 and stained with anti-CD45, CD11b, F4/80, CD68 and Ki67 followed by FACS analysis. Shown are representative FACS plots (a ) and quantification of the percentage of CD11b+F4/80+ and CD11b+F4/80+CD68+Ki67+ cells (b). Data are presented as mean ± SEM from 5 different mice. p values were calculated using two-tailed, unpaired t tests.
**, p<0.01; ***, p<0.001. (c,d) Tumors from mice described in Figure 4e were harvested at day 45 and stained […]

[3] = test system: PI3K/AKT1 and ERK phosphorylation; test: Western blot of p-PI3K, p-AKT1 and p-ERK in TAMs; format: cell-based, mouse
Experimental: Supplementary Figure 13. NHWD-870 inhibited CSF1/CSF1R signaling pathw ay to reduce TAM […]
TA M s ( 2 ×10^5 cells) (treated with or without 10 ng/ml CSF1 and 100 nM NHWD-870 for 48 h) were seeded into the 6-well bottom chamber, in the presence or absence of A2780 cells (pre-treated with or without 100 nM NHWD-870 for 48 h) seeded into the top chamber (transwell size: 0.4μm). Shown are schematics of the experiment and representative western blot analysis of the indicated proteins (a), and quantification of the relative levels of p-PI3K, p-AKT1 and p-ERK over their respective total protein (b). Data are presented as mean ± SEM from 3 independent experiments. p values were calculated using two-tailed, unpaired t tests. n.s, no significant; **, p<0.01; ***, p<0.001. Source data are provided as a Source Data file. […]
4. Protein extraction and w estern blot anal ysis. Freshly dissected unfixed tissue was homogenized in lysis buffer. The lysates were centrifuged at 13,000g for 10 minutes at 4°C. Supernatants were collected and determined with a Bradford Protein Assay kit (Bio-Rad, Hercules, CA). The cell lysates were subjected to SDS-PAGE followed by immunoblotting (Immobilon P; Millipore, Milford, MA) with specific antibodies followed by detection using an enhanced chemilumine scence kit (Amersham Life Science, Arlington Heights, IL). […]

BRD4 (BD1+BD2) = biological target: T1, BRD4 (BD1+BD2) (Homo sapiens, UniProt O60885); test: BRD4 (BD1+BD2) TR-FRET binding assay; conditions: for Biochemical activity against BRD4 (BD1 + BD2): Fig.1d, replicates
T1 construct: purchased BPS 32612
Source text: 2. BRD4 binding assay. The inhibitory effects of NHWD-530, NHWD-540, NHWD- […]
(BPS, Cat # 32612) per manufacturer’s instructions. […]

MDA-MB231 cells = test: 3D matrigel assay, MDA-MB231; format: cell-based, human; conditions: MDA-MB231, 100 nM
Experimental: Fig. 2 NHWD-870 inhibited BRD4 phosphorylation and c-MYC expression, and suppressed cell growth. a Representative western blot analysis of p-BRD4 (s484/488), BRD4, c-MYC, and GAPDH after treatment of MDA-MB231, SUM159, A2780 ES-2, and H526 cells with JQ-1 or NHWD-870 at the indicated concentrations for 24 h. GAPDH served as the loading control. Selected from three independent experiments. b MTT assays of H526, A2780, ES-2, and MDA-MB231 cells treated with JQ-1 or NHWD-870 at the indicated concentrations for 5 days. Data are presented as mean ± SEM from three independent experiments. c, d Clonogenic assays of H526, A2780, ES-2 and MDA-MB231 cells treated with 250 nM JQ-1 or NHWD-870 for 5 days. Shown are representative images (c) and quantification of colonies (d). […] Shown are representative images (e) and quantification of relative colony sizes (f). Scale bar, 50 μm. Data are presented as mean ± SEM from five independent experiments. p values were calculated using two-tailed, unpaired t tests in this figure. **p < 0.01; ***p < 0.001. Source data are provided as a Source Data file.
Single clone spheroids were generated by culturing A2780, ES-2, H526 and MDA-MB231 cells for 16 h as a hanging drop over a humidified plate in a CO2 incubator in their corresponding complete media. […] The relative spheroid sizes were measured with ImageJ version 1.52s using the 15 representative spheroids.

[4] = A2780&NHWD-870, individual replicates
[5] = CSF1&NHWD-870, individual replicates

Cc1nnn(C)c1-c1cnc2c3c4cnn(C)c4ccc3n([C@H](c3ccccc3)C3CCOCC3)c2c1 [NHWD-870]
effect on growth of HaCAT cells ([1]; 24h, 48h or 72h): minimal effects | Cell viability (Sup Fig.4a) ([1]; 24h, 8 nM, 0.008 µM): 96.6 and 101.8 and 89.4 and 88.3 | Cell viability (Sup Fig.4a) ([1]; 24h, 16 nM, 0.016 µM): 98.4 and 107.6 and 95.8 | Cell viability (Sup Fig.4a) ([1]; 24h, 32 nM, 0.032 µM): 83 and 93.4 and 105.5 and 99.6 and 95.5 | Cell viability (Sup Fig.4a) ([1]; 24h, 64 nM, 0.064 µM): 112.7 and 111.1 and 101.6 and 109.8 | Cell viability (Sup Fig.4a) ([1]; 24h, 250 nM, 0.25 µM): 109.5 and 106.5 and 97.6 and 108.3 | Cell viability (Sup Fig.4a) ([1]; 24h, 500 nM, 0.5 µM): 119.6 and 110.7 and 109.3 and 105 | Cell viability (Sup Fig.4a) ([1]; 24h, 1000 nM, 1 µM): 106.7 and 106.8 and 109.4 and 111.5 | Cell viability (Sup Fig.4b) ([1]; 8 nM, 0.008 µM): 89.1 and 94.5 and 96.5 | Cell viability (Sup Fig.4b) ([1]; 16 nM, 0.016 µM): 85.3 and 85.9 and 93.1 and 85.1 | Cell viability (Sup Fig.4b) ([1]; 32 nM, 0.032 µM): 88.3 and 88.2 | Cell viability (Sup Fig.4b) ([1]; 64 nM, 0.064 µM): 94.7 and 90.4 and 88.4 | Cell viability (Sup Fig.4b) ([1]; 250 nM, 0.25 µM): 97.7 and 92.7 and 91.5 | Cell viability (Sup Fig.4b) ([1]; 500 nM, 0.5 µM): 88 and 95 and 91.6 and 82.3 | Cell viability (Sup Fig.4b) ([1]; 1000 nM, 1 µM): 88.6 and 81.5 and 80.9 and 84.8 | Cell viability (Sup Fig.4b, 72h) ([1]; 8 nM, 0.008 µM): 90.9 and 86.4 and 92.1 and 95.1 | Cell viability (Sup Fig.4b, 72h) ([1]; 16 nM, 0.016 µM): 95.9 and 89.1 and 93.1 | Cell viability (Sup Fig.4b, 72h) ([1]; 32 nM, 0.032 µM): 88.4 and 97.6 and 92.8 and 90.1 | Cell viability (Sup Fig.4b, 72h) ([1]; 64 nM, 0.064 µM): 99.6 and 89.5 and 92.9 | Cell viability (Sup Fig.4b, 72h) ([1]; 250 nM, 0.25 µM): 93.7 and 89.8 and 88 | Cell viability (Sup Fig.4b, 72h) ([1]; 500 nM, 0.5 µM): 98.2 and 93.6 and 82.4 and 89.4 | Cell viability (Sup Fig.4b, 72h) ([1]; 1000 nM, 1 µM): 74 and 86.3 and 92.4 | number of TAMs (CD11b+F4/80+ cells) or proliferating TAMs [2]: decreased the number of TAMs | p-AKT1 (Sup Fig.13b quantification) [3, 4]: 2.1 and 1.52 and 1.57 | p-ERK (Sup Fig.13b quantification) [3, 4]: 1.19 and 1.05 and 0.87 | p-PI3K (Sup Fig.13b quantification) [3, 4]: 2.9 and 1.18 and 1.69 | p-AKT1 (Sup Fig.13b quantification) [3, 5]: 6.88 and 4.52 and 4.09 | p-ERK (Sup Fig.13b quantification) [3, 5]: 3.28 and 4.19 and 4.11 | p-PI3K (Sup Fig.13b quantification) [3, 5]: 2.92 and 3.3 and 3.78 | CSF1-induced PI3K/AKT1 and ERK phosphorylation in TAMs ([3]; direct treatment of TAMs, 100 nM, 48 h): not affected | PI3K/AKT1 and ERK activation in TAMs co-cultured with A2780 cells ([3]; pre-treatment of A2780 cells, 100 nM, 48 h): blocked | Biochemical activity against BRD4 (BD1 + BD2) (BRD4 (BD1+BD2); concentration(nM) 0.0021442): 0.8628 and 1.4579 | Biochemical activity against BRD4 (BD1 + BD2) (BRD4 (BD1+BD2); concentration(nM) 0.061236): 16.5754 and 12.5588 | Biochemical activity against BRD4 (BD1 + BD2) (BRD4 (BD1+BD2); concentration(nM) 0.103): 20.2946 and 25.6828 | Biochemical activity against BRD4 (BD1 + BD2) (BRD4 (BD1+BD2); concentration(nM) 0.59176): 60.3038 and 63.4692 | Biochemical activity against BRD4 (BD1 + BD2) (BRD4 (BD1+BD2); concentration(nM) 1.19382): 79.3053 and 83.6424 | Biochemical activity against BRD4 (BD1 + BD2) (BRD4 (BD1+BD2); concentration(nM) 1.79588): 95.9066 and 95.1156 | Biochemical activity against BRD4 (BD1 + BD2) (BRD4 (BD1+BD2); concentration(nM) 2.39794): 100.74 and 99.5542 | Biochemical activity against BRD4 (BD1 + BD2) (BRD4 (BD1+BD2); concentration(nM) 3): 101.339 and 101.804 | IC50 (BRD4 (BD1+BD2); average IC50, nM, read-out: IC50, biochemical activity against BRD4 (BD1 + BD2)): 2.7 nM and 2.72 nM | Clone Size (relative colony size, 3D matrigel assay) (MDA-MB231 cells): 23.2 and 29.8 and 19 and 25.8 and 21.1
